# Test results as given in US5744462A, “Steroids useful as anti-cancer and anti-obesity agents” (Research Corporation Technologies, Inc., priority 1995, dated 1998).
# What was measured:
# [1] = target: purified bovine adrenal G6PDH (Bos taurus, UniProt F1MMK2); assay: G6PDH inhibition test; assay type: biochemical; details: individual determinations
# Description: The compound listed below are screened as inhibitors of purified bovine adrenal G6PDH activity as one predictor of cancer preventive action. The assay for testing the inhibition of purified bovine adrenal G6PDH is according to the procedure by Oertell, G. W. and Rebelein, I. in Biochem. Biophys. Acta, 184, 459-460 (1969).
# [2] = system: human lymphocytes (Epstein-Barr virus-induced transformation); details: cited from earlier work
# [3] = Body weight and food consumption in the DMBA binding experiment; assay type: in vivo, mouse; details: two weeks of feeding
# Procedure: Binding of [^3 H]DMBA to mouse skin DNA was determined as described in Pashko, L. L., and Schwartz, A. G. (1983), Effect of food restriction, dehydroepiandrosterone, or obesity on the binding of ^3 H-7,12-dimethylbenz(a)anthracene to mouse skin DNA, J. Gerontol., 38, 8-12. Values are mean±SD for 3 individual determinations, with pooled tissue from 2 mice used for each determination. DHEA or testosterone (400 ug in 0.2 ml acetone) was applied to the skin one hour before [^3 H]DMBA. The mean weight of the food restricted mice was 18.5±1.0 gm, n=6, of the ad libitum fed, 27.4±1.0 gm, n=6, of the ad libitum fed treated with DHEA, 28.2±0.9 gm, n=6, and of the ad libitum fed treated with testosterone, 28.3±0.9 gm, n=6, following two weeks of feeding. The average food consumed was, in gm/mouse/day, 2.2, 3.8, 3.8 and 4.0 for the food restricted, ad libitum fed, ad libitum fed plus DHEA, and ad libitum fed plus testosterone groups, respectively.
# [4] = system: mouse epidermis (TPA stimulated 3H-thymidine incorporation); assay: TPA stimulation of 3H-thymidine incorporation in mouse epidermis, oral steroid; assay type: in vivo, mouse (male ICR)
# Procedure: (§1) Tumor promoters, such as TPA, stimulate hyperplasia and DNA synthesis when applied to the skin, and it is believed that this stimulation is an important step in the enhancement of tumorigenesis.
# Male ICR mice were orally intubated with steroid suspended in sesame oil (0.5 ml/mouse) at the indicated dose. Mice not receiving steroid were given sesame oil alone. One hour later mice received topical application of TPA and 20 hours later the rate of ^3 H-thymidine incorporation into the epidermis was determined as described in Pashko, L. L., Schwartz, A. G., Abou-Gharbia, M., and Swern, D. (1981), Inhibition of DNA synthesis in mouse epidermis and breast epithelium by dehydroepiandrosterone and related steroids, Carcinogenesis, 2,-717-721.
# Experimental conditions are the same as in Table 3.
# [5] = DMBA-initiated and TPA-promoted; cited from earlier work
# [6] = system: mouse epidermal DNA (TPA stimulated 3H-thymidine incorporation); assay: TPA stimulation of 3H-thymidine incorporation in epidermis, topical steroid; assay type: in vivo, mouse (A/J); details: for SPECIFIC ACTIVITY, TPA stimulated 3H-thymidine incorporation: no steroid 66, TPA alone 174
# Procedure: as §1
# Incorporation of ^3 H-thymidine into A/J mouse epidermal DNA was determined as described in Pashko, L. L., Schwartz, A. G., Abou-Gharbia, M. and Swern, D. (1981), Inhibition of DNA synthesis in mouse epidermis and breast epithelium by dehydroepiandrosterone and related steroids, Carcinogenesis, 2, 717-721. Values are mean±SD for 3 separately treated mice in each group 20 hours after TPA application. DHEA or testosterone was added topically in 0.2 ml acetone one hour before TPA addition.
# [7] = long term treatment, NZB mice; cited from earlier work
# HeLa cell strain, TCRC-2 = details: cited from earlier work
# [8] = system: mammalian glucose-6-phosphate dehydrogenase (G6PDH); details: cited from earlier work
# [9] = system: many different cell lines; details: 10^-5 M to 10^-4 M; cited from earlier work
# [10] = C3H mice, cited from earlier work
# [11] = cited from earlier work
# mouse epidermis = details: cited from earlier work
# [12] = mouse, in vivo; cited from earlier work
# [13] = Anti-weight effect in mice, general statements; assay type: in vivo, mouse
# Description: (Table 9 vs Table 5 and Table 6). […] Thus the cancer preventive the cancer preventive effect of DHEA may result indirectly from its anti-weight action rather than from a direct effect of DHEA or target cells.
# [14] = in vivo; cited from earlier work
# [15] = mouse, in vivo; cited from earlier work; remark: listed apart in the source
# [16] = oral; cited from earlier work
# [17] = Anti-obesity action, body weight, male A/J mice; assay type: in vivo, mouse (male A/J); details: 0.45% in diet
# Procedure: Male A/J (5 weeks old) mice were obtained from the
# Jackson Laboratory and were housed in polycarbonate cages (6
# mice/cage) in animal quarters maintained at 24 ± 1° C. with 12
# hours of light and 12 hours of darkness each day. One week
# after arrival, the mice were placed on a diet containing
# either DHEA, 8353, or without steroid. Animals were weighed
# [18] = daily approximately 400 mg/kg, long-term; cited from earlier work
# mouse skin DNA = assay: (3H) DMBA binding to skin DNA; assay type: in vivo, mouse (A/J); details: for effect on 3H-DMBA binding to skin DNA: mice
# purified bovine adrenal G6PDH, sequence (F1MMK2 31-70): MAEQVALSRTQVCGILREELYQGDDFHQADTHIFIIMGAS
# purified bovine adrenal G6PDH, sequence (F1MMK2 101-575): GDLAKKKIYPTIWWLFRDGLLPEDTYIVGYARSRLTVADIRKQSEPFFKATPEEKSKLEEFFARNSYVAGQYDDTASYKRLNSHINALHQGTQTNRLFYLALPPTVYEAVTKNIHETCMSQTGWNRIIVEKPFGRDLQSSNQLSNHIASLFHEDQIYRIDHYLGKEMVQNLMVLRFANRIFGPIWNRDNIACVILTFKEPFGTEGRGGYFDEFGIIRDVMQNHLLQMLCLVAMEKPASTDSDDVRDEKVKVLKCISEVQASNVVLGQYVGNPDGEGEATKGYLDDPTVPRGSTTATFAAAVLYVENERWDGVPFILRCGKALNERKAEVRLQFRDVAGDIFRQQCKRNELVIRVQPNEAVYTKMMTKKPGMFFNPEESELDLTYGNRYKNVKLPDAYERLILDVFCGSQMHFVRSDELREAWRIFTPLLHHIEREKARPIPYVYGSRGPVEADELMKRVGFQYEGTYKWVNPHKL
smiles,measurement,setting,value
"C[C@]12CC[C@H](O)CC1=CC[C@@H]1[C@@H]2CC[C@]2(C)C(=O)CC[C@@H]12 [DHEA, Dehydroepiandrosterone]",Percent Inhibition of G6PDH,[1]; 10^-5 M,57%
same,inhibition at 10 µM,"[1]; 10^-5 M, read-out: Percent Inhibition of G6PDH",53%
same,inhibition at 1 µM,"[1]; 10^-6 M, read-out: Percent Inhibition of G6PDH",17%
same,inhibition of Epstein-Barr virus-induced transformation,[2],inhibitors of Epstein-Barr virus-induced transformation of human lymphocytes
same,mean body weight,"[3]; topical 400 ug, ad libitum fed 27.4±1.0",28.2±0.9 gm
same,average food consumed,[3]; ad libitum fed 3.8,3.8 gm/mouse/day
same,"SPECIFIC ACTIVITY, TPA stimulated 3H-thymidine incorporation","[4]; Table 9, oral 400 mg/kg, no steroid 55.1, TPA alone 118",50.9 ± 3.2 cpm/ug DNA
same,effect on TPA stimulation in 3H-thymidine incorporation,"[4]; oral, mice, doses well below 400 mg/kg, comparable to food restriction",inactive
same,effect on TPA stimulation of 3H-thymidine incorporation,"[4]; single administration, 400 mg/kg, mice, compared with food restriction or topical 400 ug DHEA",does not inhibit the TPA stimulation in epidermal ^3 H-thymidine incorporation to a degree comparable
same,skin papilloma formation,[5],inhibit
same,"SPECIFIC ACTIVITY, TPA stimulated 3H-thymidine incorporation",[6]; topical 100 ug,52 ± 5.8 cpm/ug DNA
same,"SPECIFIC ACTIVITY, TPA stimulated 3H-thymidine incorporation",[6]; topical 400 ug,22 ± 6.5 cpm/ug DNA
same,effect on TPA stimulation of 3H-thymidine incorporation,"[6]; topical, in words (Table 5)",abolishes this stimulation
same,rate of development of the autoimmune anemia,[7],significantly inhibits the rate of development of the autoimmune anemia
same,growth inhibition of HeLa TCRC-2,"HeLa cell strain, TCRC-2",particularly sensitive to DHEA-induced growth inhibition
same,reversal of growth inhibition by deoxynucleosides,"HeLa cell strain, TCRC-2; mixture of deoxynucleosides of adenine, guanine, cytosine, thymine in medium",can be almost completely overcome
same,inhibition of mammalian G6PDH,[8],potent non-competitive inhibitor
same,growth of cell lines in culture,[9],slows the growth of many different cell lines in culture
same,weight gain on long-term treatment,[10],reducing weight gain without suppressing appetite
same,spontaneous breast cancer development,[10]; long-term treatment,markedly inhibits spontaneous breast cancer development
same,enzyme-positive premalignant foci in the liver,"[11]; 0.6%, 20-22 weeks, after 4 injections of carcinogen",inhibited the formation of enzyme-positive premalignant foci in the liver
same,"liver basophilic lesions, enzyme-negative",[11]; after carcinogen,promoted the development of liver basophilic lesions which were enzyme-negative
same,capacity of TPA to stimulate 3H-thymidine incorporation,mouse epidermis,antagonizes
same,hypoglycemic effect,[12],marked hypoglycemic effect
same,anti-weight effect,"[13]; approximately 400 mg/kg daily, repeatedly over a few weeks",produces an anti-weight effect
same,effect on weight: cause of the anti-weight effect,"[13]; four weeks, 400 mg/kg",due to both a reduction in food intake and to a decrease in the efficiency of food utilization
same,estrogenic effect after prolonged administration,[14],evidence of an estrogenic effect after prolonged administration
same,anti-hypercholesterolemic effect,[15],anti-hypercholesterolemic effect
same,survival,[16],prolonged the survival
same,mean weekly weight ± S.D.,"[17]; week 0, control 23 ± 1.5",23.0 ± 1.5 grams
same,mean weekly weight ± S.D.,"[17]; week 1, control 25.0 ± 1.6",22.8 ± 1.5 grams
same,mean weekly weight ± S.D.,"[17]; week 2, control 27.0 ± 1.6",19.0 ± 1.5 grams
same,mean weekly weight ± S.D.,"[17]; week 3, control 27.3 ± 1.6",21.5 ± 1.1 grams
same,mean weekly weight ± S.D.,"[17]; week 4, control 27.5 ± 1.9",21.4 ± 1.2 grams
same,"development of breast, lung, and colon tumors",[18],"inhibit the development of breast, lung, and colon tumors"
same,"SPECIFIC ACTIVITY, (3H) DMBA binding to skin DNA","mouse skin DNA; 400 ug topical one hour before DMBA, ad libitum fed 116 ± 5.2",66 ± 13 cpm/ug DNA
same,effect on 3H-DMBA binding to skin DNA,"mouse skin DNA; four weeks, 400 mg/kg",does inhibit ^3 H-DMBA binding to skin DNA
same,effect on 3H-DMBA binding to skin DNA,"mouse skin DNA; oral, doses well below 400 mg/kg",inactive
same,effect on 3H-DMBA binding to skin DNA,"mouse skin DNA; single administration, 400 mg/kg",does not inhibit ^3 H-DMBA binding to skin DNA
same,effect on rate of binding of 3H-DMBA to skin DNA,"mouse skin DNA; topical, in words (Table 4)",inhibits the rate of binding
